Results reported in paper PMC8301544, “A randomized, double‐blind, placebo‐ and positive‐controlled crossover study of the effects of durlobactam on cardiac repolarization in healthy subjects” (Clinical and Translational Science, 2021).
Like-named read-outs stand apart in the source and are kept apart here.

Assays:
[1] = Plasma pharmacokinetics after single dose in healthy subjects (LC-MS/MS, noncompartmental analysis); format: in vivo, human
Description: Moxifloxacin was administered open‐label.
Plasma concentrations less than the lower limit of quantification were reported as 0. Plasma concentrations of durlobactam were determined by validated liquid chromatography with tandem mass spectrometry (LC‐MS/MS) assays operated in the negative ion mode (method number M8351072B) performed at Covance (Salt Lake City, UT). For durlobactam, the quantitation range was 5–5000 ng/ml. Moxifloxacin plasma concentrations were determined by LC‐MS/MS operated in the positive ion mode (method number 180M001.01) performed at Pharmaron ABS (Germantown, PA). The quantitation range was 1–1000 ng/ml.
PK parameters were determined with noncompartmental analysis using Phoenix WinNonlin (version 7.0 or higher), and PK parameters were compared with SAS version 9.3 or higher.

[2] = tested on: healthy subjects; experiment: Safety and tolerability (adverse events); format: in vivo, human; details: for serious AEs, discontinuation for AEs, deaths: all treatment groups; for incidence of at least one AE: single dose durlobactam 4 g i.v. or moxifloxacin 400 mg oral
Description: Safety was assessed from vital signs (systolic/diastolic blood pressure, HR, respiratory rate, and body temperature), physical examination, clinical laboratory tests (serum chemistry, hematology, and urinalysis), 12‐lead safety ECGs, and adverse events (AEs).

[3] = Single dose study in subjects with varying degrees of renal impairment; format: in vivo, human; details: severe renal impairment category (CLcr = 0-15 ml/min)
[4] = tested on: healthy subjects
Description: The relationship between durlobactam plasma concentration and change‐from‐baseline QTcF (ΔQTcF) was investigated by a linear mixed‐effects modeling approach with a treatment effect‐specific intercept. […] The geometric mean of the individual Cmax values for subjects on the active dose were determined.

[5] = set-up: method as in PMID 32284380; details: multiple dose regimen for 11 days, 1 g i.v. dose; cited from earlier work
[6] = patients with complicated urinary tract infection, durlobactam/sulbactam 1 g every 6 h for 7 days; cited from earlier work
[7] = single dose, normal renal function; cited from earlier work
[8] = tested on: class A, C, and D β-lactamases; details: cited from earlier work
[9] = tested on: healthy subjects; experiment: Cardiodynamic evaluation, 12-lead 24-h Holter ECG (QTcF, HR, categorical outliers); details: for mean placebo-corrected ΔHR (ΔΔHR) / placebo-corrected change from baseline QTcF (ΔΔQTcF): durlobactam 4 g i.v.; for placebo-corrected change from baseline QTcF (ΔΔQTcF): mean ± spread (90% CI); for subjects with QTcF greater than 450 ms and less than or equal to 480 ms: single dose durlobactam 4 g i.v. or moxifloxacin 400 mg oral
Description: This was a partially double‐blind study in healthy adult subjects, which was conducted as a placebo‐ and active‐controlled, single‐infusion, three‐way crossover study. […] Study treatments were administered in the fasted state on day 1 of each treatment period. A 7 (±2) day washout period occurred between successive treatments. Subjects, investigator, and sponsor were blinded to durlobactam and placebo treatment assignment. Moxifloxacin was administered open‐label.
Variables associated with the primary ECG end point, placebo‐corrected change‐from‐baseline QTcF (ΔΔQTcF), were computed from means of measurements made on multiple replicate ECGs extracted at scheduled timepoints from Holter 12‐lead ECG data. Holter 12‐lead ECGs were read centrally (ERT, Rochester, NY). ECG end points included change‐from‐baseline HR, QTcF, PR, and QRS (ΔHR, ΔQTcF, ΔPR, and ΔQRS); placebo‐corrected change‐from‐baseline HR, PR, and QRS (ΔΔHR, ΔΔPR, and ΔΔQRS); categorical outliers for QTcF, HR, PR, and QRS; and frequency of treatment‐emergent changes of T‐wave morphology and U‐wave presence.
During each treatment period, 12‐lead, 24‐h Holter ECGs were continuously recorded and evaluated by a central ECG laboratory.

CC1=C[C@@H]2CN(C(=O)N2OS(=O)(=O)O)[C@@H]1C(N)=O [durlobactam]
Vz (volume of distribution) ([1]; durlobactam 4 g single 3-h i.v. infusion, n = 31, mean): 33.6 ± 5.2 L | Tmax ([1]; durlobactam 4 g single 3-h i.v. infusion, n = 31, mean, after start of infusion): 3.1 ± 0.32 h | Cmax ([1]; human, plasma, iv, 4 g, durlobactam 4 g single 3-h i.v. infusion, healthy subjects, n = 31, mean, read-out: Cmax): 108 µg/mL | Tmax ([1]; human, plasma, iv, 4 g, durlobactam 4 g single 3-h i.v. infusion, n = 31, mean, after start of infusion, read-out: Tmax): ~3 h | Vd ([1]; human, plasma, iv, 4 g, durlobactam 4 g single 3-h i.v. infusion, n = 31, mean, read-out: Vz (volume of distribution)): 33.6 L | Cmax ([1]; human, plasma, iv, 4 g, durlobactam 4 g single 3-h i.v. infusion, read-out: observed geometric mean Cmax): 106 µg/mL | AUC(0-inf) ([1]; human, plasma, iv, durlobactam 4 g single 3-h i.v. infusion, n = 31, mean): 413 µg·h/mL | AUC(0-t) ([1]; human, plasma, iv, durlobactam 4 g single 3-h i.v. infusion, n = 31, mean, read-out: AUC0-24): 413 µg·h/mL | clearance ([1]; human, plasma, iv, durlobactam 4 g single 3-h i.v. infusion, n = 31, mean, read-out: CL (total body clearance) (converted)): ~165 mL/min | half-life ([1]; human, plasma, iv, durlobactam 4 g single 3-h i.v. infusion, read-out: mean apparent half-life (converted)): 2.3 h | fold increase of mean Cmax (4 g dose) above maximum Cmax predicted with a 1 g dose ([1]; patients with normal renal function): ~3.2 fold | fold increase of mean Cmax (4 g dose) above maximum Cmax predicted with a 1 g dose ([1]; patients with severe renal impairment): ~1.5 fold | serious AEs, discontinuation for AEs, deaths [2]: No serious AEs, discontinuation for AEs, or deaths occurred | incidence of fatigue (AE) ([2]; durlobactam 4 g i.v., 2 subjects): 6.5% | incidence of at least one AE [2]: 19.4% | estimated Cmax from linear regression of dose normalized Cmax versus creatinine clearance [3]: 60,000 ng/ml | plasma concentration up to which an effect on ΔΔQTcF exceeding 10 ms was excluded ([4]; durlobactam): ~190,000 ng/ml | effect on ECG parameters including QT interval prolongation (C-QT analysis) ([4]; durlobactam 4 g i.v. over 3 h): no significant effect | fold of excluded concentration (190,000 ng/ml) over therapeutic plasma concentrations ([4]; durlobactam, planned dose of 1 g): over 3 fold | treatment effect-specific intercept ([4]; durlobactam, not statistically significant): 0.6 ms | estimated slope of the plasma concentration-QTc relationship ([4]; durlobactam, not statistically significant, 90% CI -0.0000232 to 0.0000194): −0.0000019 ms per ng/ml | Cmax [5]: 28.1 µg/mL | Cmax [6]: 39,900 ng/ml | Cmax [7]: 27,000 ng/ml | β-lactamase inhibition [8]: inhibits class A, C, and D β‐lactamases | mean placebo-corrected ΔHR (ΔΔHR) ([9]; 3 h post-start-of-infusion): −2.6 bpm | mean placebo-corrected ΔHR (ΔΔHR) ([9]; 4 h post-start-of-infusion): −0.2 bpm | placebo-corrected change from baseline QTcF (ΔΔQTcF) ([9]; 6 h): 1.8 ms | placebo-corrected change from baseline QTcF (ΔΔQTcF) ([9]; 8 h): 1.8 ms | placebo-corrected change from baseline QTcF (ΔΔQTcF) ([9]; 24 h): 0.0 ms | effect on HR ([9]; durlobactam 4 g supratherapeutic dose): no clinically relevant effect on HR | subjects with QTcF greater than 450 ms and less than or equal to 480 ms [9]: 3.2%

COc1c(N2C[C@@H]3CCCN[C@@H]3C2)c(F)cc2c(=O)c(C(=O)O)cn(C3CC3)c12 [moxifloxacin, reference compound]
Cmax ([1]; human, plasma, po, 400 mg, moxifloxacin single 400 mg oral dose, read-out: mean Cmax): 2.18 µg/mL | Tmax ([1]; human, plasma, po, 400 mg, moxifloxacin single 400 mg oral dose, read-out: time to peak plasma concentration): ~1.9 h | AUC(0-t) ([1]; human, plasma, moxifloxacin single 400 mg oral dose, read-out: mean AUC0-last): 22.6 µg·h/mL | geometric mean peak concentration ([1]; moxifloxacin single 400 mg oral dose): 2103.4 ng/mL | serious AEs, discontinuation for AEs, deaths [2]: No serious AEs, discontinuation for AEs, or deaths occurred | incidence of at least one AE [2]: 22.6% | slope of the concentration-QTc relationship ([4]; human, in vivo): 0.0065 ms per ng/ml | treatment effect-specific intercept ([4]; human, in vivo): 0.4 ms | subjects with QTcF greater than 450 ms and less than or equal to 480 ms [9]: 6.5% | subjects with ΔQTcF greater than 30 ms and less than or equal to 60 ms ([9]; single dose moxifloxacin 400 mg oral): 6.5%
